In patent US20050047997A1, “Method for the evaluation of the efficiency of a therapeutic action upon the human organism” (priority 1997, published 2005):

What was measured:
Assay type in all cases: in vivo, human
ulcerous defect = test: Ulcer healing (cicatrization of ulcerous defect) in ulcer patients; conditions: compared with the other group
Protocol: As a result, each group consists of patients of the same sex or features the same proportion of males and females who differ in age by not more than one year. […] Thus, patients with the stomach ulcer are ranked by the ulcerous defect localization with the accuracy of 1/9th of the stomach sections: cardia, subcardia, upper, middle and lower thirds of the stomach body, angle, anthral and prepyloric sections, pylorus. The initial surface area of the ulcerous defect is measured. Then the current stage (phase) of the disease: acute stage (the stage of ulcer forming), stationary stage or “plateau” and the stage of reparation proper (see FIG. 4) is determined for each patient on the basis of clinical, laboratory and instrumental indications. These phases characterize the period of time that passed since the beginning of relapse (exacerbation or start) of the disease till the patient was included into the clinical experiment. […]
The quantitative number of patients in groups must provide the statistical reliability of the results. In the given example the group treated with a reference medical preparation consisted of 73 patients, while the group treated with the medical preparation that had to be evaluated consisted of 81 patients. […] The control time is determined for the selected groups of ulcer patients. […]

[1] = Homeostasis (lipid metabolism) indicators in treated ulcer patients
Protocol: As a result, each group consists of patients of the same sex or features the same proportion of males and females who differ in age by not more than one year. […] Thus, patients with the stomach ulcer are ranked by the ulcerous defect localization with the accuracy of 1/9th of the stomach sections: cardia, subcardia, upper, middle and lower thirds of the stomach body, angle, anthral and prepyloric sections, pylorus. The initial surface area of the ulcerous defect is measured. Then the current stage (phase) of the disease: acute stage (the stage of ulcer forming), stationary stage or “plateau” and the stage of reparation proper (see FIG. 4) is determined for each patient on the basis of clinical, laboratory and instrumental indications. These phases characterize the period of time that passed since the beginning of relapse (exacerbation or start) of the disease till the patient was included into the clinical experiment. The method in question uses homeostasis indications, particularly those related to lipid metabolism, for the evaluation of the efficiency of the therapeutic action. Based on the above principle, the patients are divided into subgroups according to the following classification: • cholesterol (CS); • high density lipoproteins (HDLP); • low density lipoproteins (LDLP); • very low density lipoproteins (VLDLP); • triglycerides (TG); • atherogenicity factor (AF).
The quantitative number of patients in groups must provide the statistical reliability of the results. In the given example the group treated with a reference medical preparation consisted of 73 patients, while the group treated with the medical preparation that had to be evaluated consisted of 81 patients. The reference group was treated with a medication belonging to proton pump blocking agent (for example, Zerocid), while the experimental group was treated with a medication belonging to antacids (for example, Maalox). If the studied medications are only to be ranked by the efficiency of their action upon the organism rather than compared with each other, placebo can be used as a reference medication. The control time is determined for the selected groups of ulcer patients. The control is performed individually for each ranked experimental group. […]
The initial efficiency criterion was a complete healing of ulcerous defect combined with the dynamics of the change in homeostasis characteristics. The individual temporal norm was represented by a time interval calculated on the basis of individual characteristics of the ulcer healing process that corresponded to the individual characteristics of the homeostasis indications, for instance, to the characteristics of lipid metabolism calculated by the known formulas. […]

[2] = Electrolytic homeostasis (sodium level) in treated hypertension patients; conditions: initial level 140 mmol/l
Protocol: (§1) Selected hypertension patients are divided into two groups. The reference group includes 48 patients and the experimental group includes 56 patients. Each group consists of 60% of females, the rest being males. All the patients in the same group differ in age by not more than 1 year. The patients from the experimental group are treated with a hypotensive medication belonging to calcium current blocking agents—Corinfar, (see […], lines from 1 to 3), while those from the reference group are treated with a medication that blocks angiotensin-transforming enzyme (ATE) Prestarium (see FIG. 3, lines from 4 to 6). The period from the beginning of the relapse till the inclusion of the patient into the experiment is chosen to be 2 days. The phase of the disease is selected to be hypertension of medium exacerbation. The prevailing disease localization is its cerebral variant, in other words, the variant characterized by prevailing damage of cerebral vessels. The initial level of the homeostasis characteristics is set by the characteristic of electrolytic homeostasis, i.e. the sodium level, and is equal to 140 mmol/l for both groups. The patients' arterial pressure was monitored every other day, which corresponded to the period of time that is characterized by a significant decrease in arterial pressure under the effect of ATE blocking agent. […]

arterial pressure = test: Arterial pressure monitoring in hypertension patients; conditions: monitored every other day
Protocol: as §1

| level of sodium after treatment [2] | SMILES | cicatrization of ulcerous defects (ulcerous defect) | effect upon the atherogenesis and oncogenesis judged from lipid spectrum indications [1] | HDLP indicators ([1]; FIG. 2a, lines 1-16) | atherogenicity factor (AF) ([1]; during treatment) | level of triglycerides (TG) ([1]; during treatment) | arterial pressure change as a result of treatment (arterial pressure) |
| --- | --- | --- | --- | --- | --- | --- | --- |
|  | COc1ccc2[nH]c([S+]([O-])Cc3ncc(C)c(OC)c3C)nc2c1 (stereo not drawn) [Zerocid] | faster | clearly negative effect | decreasing | increasing | increasing |  |
| 137000 µM | CCC[C@H](N[C@@H](C)C(=O)N1[C@H](C(=O)O)C[C@@H]2CCCC[C@@H]21)C(=O)OCC [Prestarium] |  |  |  |  |  | decreased by comparable values |
| 146000 µM | COC(=O)C1=C(C)NC(C)=C(C(=O)OC)C1c1ccccc1[N+](=O)[O-] [Corinfar] |  |  |  |  |  | decreased by comparable values |
